Laboratory results reported in patent US20240247035A1, “STAPLED ANTIMICROBIAL PEPTIDES (STAMPS) AND USES THEREOF” (Lytica Therapeutics, Inc., priority 2021, published 2024).
Converted amounts (≈) assume the structure as drawn. Bridge positions count the residues as written; N and C are the ends. Square brackets hold non-standard residues; d marks the D form. Peptide text beside a SMILES is read from it. S5 = C=CCCC[C@](C)(N)C(=O)O

Experiments:
[1] = 90 minute cytotoxicity assay (LDH release), renal toxicity; format: cell-based; settings: human
Outline: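 RPTEC in growth-factor-supplemented MEM were exposed overnight-plated to serial dilutions of StAMPs (from 5 mg/mL water stock) or vehicle for 90 min at 37 °C. Released LDH in medium was measured with LDH reagent for 10 min, absorbance at 490 nm.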

[2] = 48 hours cytotoxicity assay (CellTiter-Glo), liver toxicity; format: cell-based; settings: human
Outline: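 HepG2 cells (EMEM, 10% FBS) attached 4 h, then exposed to serial dilutions of StAMPs (from 5 mg/mL water stock) or vehicle for 48 h at 37° C. Viability read by CellTiter-Glo luminescence after 10 min at room temperature.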

Compound | IC50 at 90 min [1] | IC50 at 48 hours [2]
CC[C@H](C)[C@H](NC(=O)[C@H](CCCCN)NC(=O)[C@H](CCCCN)NC(=O)CNC(=O)[C@H](CCCCN)NC(=O)[C@]1(C)CCCC=CCCC[C@](C)(NC(=O)CN)C(=O)N[C@@H](Cc2ccccc2)C(=O)N[C@@H](CO)C(=O)N[C@@H](CCCCN)C(=O)N1)C(=O)N[C@@H](CCCCN)C(=O)N[C@@H](CCCCN)C(=O)N[C@@H](CC(C)C)C(=O)N[C@@]1(C)CCCC=CCCC[C@@](C)(C(=O)N[C@@H](CCCCN)C(=O)NCC(N)=O)NC(=O)CNC(=O)[C@H](CO)NC(=O)[C@H]([C@@H](C)CC)NC1=O [compound 29] (H-G[S5]FSK[S5]KGKKIKKL[S5]ISG[S5]KG-NH2; staple 2-6, 15-19) | 27 µg/mL (≈ 11.7 µM) | 22 µg/mL (≈ 9.55 µM)
CC[C@H](C)[C@H](NC(=O)[C@H](CCCCN)NC(=O)[C@H](CCCCN)NC(=O)CNC(=O)[C@H](CCCCN)NC(=O)[C@]1(C)CCCC=CCCC[C@](C)(NC(=O)CN)C(=O)N[C@@H](Cc2ccccc2)C(=O)N[C@@H](CO)C(=O)N[C@@H](CCCCN)C(=O)N1)C(=O)N[C@@H](CCCCN)C(=O)N[C@@H](CC(N)=O)C(=O)N[C@@H](CCCCN)C(=O)N[C@@]1(C)CCCC=CCCC[C@@](C)(C(=O)N[C@@H](CCCCN)C(=O)NCC(N)=O)NC(=O)CNC(=O)[C@H](CO)NC(=O)[C@H]([C@@H](C)CC)NC1=O [compound 30] (H-G[S5]FSK[S5]KGKKIKNK[S5]ISG[S5]KG-NH2; staple 2-6, 15-19) | > 200 µg/mL | > 200 µg/mL
CC[C@H](C)[C@H](NC(=O)[C@H](CCCCN)NC(=O)[C@H](CCCCN)NC(=O)CNC(=O)[C@H](CCCCN)NC(=O)[C@]1(C)CCCC=CCCC[C@](C)(NC(=O)CN)C(=O)N[C@@H](Cc2ccccc2)C(=O)N[C@@H](CO)C(=O)N[C@@H](CCCCN)C(=O)N1)C(=O)N[C@@H](CCCCN)C(=O)N[C@@H](CC(N)=O)C(=O)N[C@@H](CC(C)C)C(=O)N[C@@]1(C)CCCC=CCCC[C@@](C)(C(=O)N[C@@H](CCCCN)C(=O)NCC(N)=O)NC(=O)CNC(=O)[C@H](CO)NC(=O)[C@H](CCCCN)NC1=O [compound 31] (H-G[S5]FSK[S5]KGKKIKNL[S5]KSG[S5]KG-NH2; staple 2-6, 15-19) | 116 µg/mL (≈ 50.3 µM) | 86 µg/mL (≈ 37.3 µM)
CC[C@H](C)[C@H](NC(=O)[C@H](CCCCN)NC(=O)[C@H](CCCCN)NC(=O)CNC(=O)[C@H](CCCCN)NC(=O)[C@]1(C)CCCC=CCCC[C@](C)(NC(=O)CN)C(=O)N[C@@H](Cc2ccccc2)C(=O)N[C@@H](CO)C(=O)N[C@@H](CCCCN)C(=O)N1)C(=O)N[C@@H](CCCCN)C(=O)N[C@@H](CC(N)=O)C(=O)N[C@@H](CC(C)C)C(=O)N[C@@]1(C)CCCC=CCCC[C@@](C)(C(=O)N[C@@H](CCCCN)C(=O)NCC(N)=O)NC(=O)CNC(=O)[C@H](CCCCN)NC(=O)[C@H]([C@@H](C)CC)NC1=O [compound 32] (H-G[S5]FSK[S5]KGKKIKNL[S5]IKG[S5]KG-NH2; staple 2-6, 15-19) | 33 µg/mL (≈ 14.2 µM) | 25 µg/mL (≈ 10.7 µM)
CC[C@H](C)[C@H](NC(=O)[C@H](CCCCN)NC(=O)[C@H](CCCCN)NC(=O)CNC(=O)[C@H](CCCCN)NC(=O)[C@]1(C)CCCC=CCCC[C@](C)(NC(=O)CN)C(=O)N[C@@H](Cc2ccccc2)C(=O)N[C@@H](CO)C(=O)N[C@@H](CCCCN)C(=O)N1)C(=O)N[C@@H](CCCCN)C(=O)N[C@@H](CC(N)=O)C(=O)N[C@@]1(C)CCCC=CCCC[C@@](C)(C(=O)N[C@@H](CC(C)C)C(=O)N[C@@H](CCCCN)C(=O)NCC(N)=O)NC(=O)[C@H](CO)NC(=O)[C@H]([C@@H](C)CC)NC(=O)[C@H](CC(C)C)NC1=O [compound 33] (H-G[S5]FSK[S5]KGKKIKN[S5]LIS[S5]LKG-NH2; staple 2-6, 14-18) | 11 µg/mL (≈ 4.69 µM) | 13 µg/mL (≈ 5.54 µM)
CC[C@H](C)[C@H](NC(=O)[C@H](CCCCN)NC(=O)[C@H](CCCCN)NC(=O)CNC(=O)[C@H](CCCCN)NC(=O)[C@]1(C)CCCC=CCCC[C@](C)(NC(=O)CN)C(=O)N[C@@H](Cc2ccccc2)C(=O)N[C@@H](CO)C(=O)N[C@@H](CCCCN)C(=O)N1)C(=O)N[C@@H](CCCCN)C(=O)N[C@@]1(C)CCCC=CCCC[C@@](C)(C(=O)NCC(=O)N[C@@H](CC(C)C)C(=O)N[C@@H](CCCCN)C(=O)NCC(N)=O)NC(=O)[C@H]([C@@H](C)CC)NC(=O)[C@H](CC(C)C)NC(=O)[C@H](CC(C)C)NC1=O [compound 34] (H-G[S5]FSK[S5]KGKKIK[S5]LLI[S5]GLKG-NH2; staple 2-6, 13-17) | 35 µg/mL (≈ 15.1 µM) | 22 µg/mL (≈ 9.5 µM)
CC[C@H](C)[C@H](NC(=O)[C@]1(C)CCCC=CCCC[C@](C)(NC(=O)[C@H](CCCCN)NC(=O)[C@H](CCCCN)NC(=O)CNC(=O)[C@H](CCCCN)NC(=O)[C@]2(C)CCCC=CCCC[C@](C)(NC(=O)CN)C(=O)N[C@@H](Cc3ccccc3)C(=O)N[C@@H](CO)C(=O)N[C@@H](CCCCN)C(=O)N2)C(=O)N[C@@H](CCCCN)C(=O)N[C@@H](CC(N)=O)C(=O)N[C@@H](CC(C)C)C(=O)N1)C(=O)N[C@@H](CO)C(=O)NCC(=O)N[C@@H](CC(C)C)C(=O)N[C@@H](CCCCN)C(=O)NCC(N)=O [compound 35] (H-G[S5]FSK[S5]KGKK[S5]KNL[S5]ISGLKG-NH2; staple 2-6, 11-15) | 27 µg/mL (≈ 11.8 µM) | 23 µg/mL (≈ 10 µM)
CC[C@H](C)[C@H](NC(=O)[C@H](CCCCN)NC(=O)[C@H](CCCCN)NC(=O)CNC(=O)[C@H](CCCCN)NC(=O)[C@]1(C)CCCC=CCCC[C@](C)(NC(=O)CN)C(=O)N[C@@H](Cc2ccccc2)C(=O)N[C@@H](CO)C(=O)N[C@@H](CCCCN)C(=O)N1)C(=O)N[C@@H](CCCCN)C(=O)N[C@@H](CC(N)=O)C(=O)N[C@@H](CC(C)C)C(=O)N[C@@H](CC(C)C)C(=O)N[C@@]1(C)CCCC=CCCC[C@@](C)(C(=O)NCC(N)=O)NC(=O)[C@H](CC(C)C)NC(=O)CNC(=O)[C@H](CO)NC1=O [compound 36] (H-G[S5]FSK[S5]KGKKIKNLL[S5]SGL[S5]G-NH2; staple 2-6, 16-20) | 63 µg/mL (≈ 27.7 µM) | 67 µg/mL (≈ 29.5 µM)
CC[C@H](C)[C@H](NC(=O)[C@H](CCCCN)NC(=O)[C@H](CCCCN)NC(=O)CNC(=O)[C@H](CCCCN)NC(=O)[C@]1(C)CCCC=CCCC[C@](C)(NC(=O)CN)C(=O)N[C@@H](Cc2ccccc2)C(=O)N[C@@H](CO)C(=O)N[C@@H](CCCCN)C(=O)N1)C(=O)N[C@@H](CCCCN)C(=O)N[C@@H](CC(N)=O)C(=O)N[C@@H](CC(C)C)C(=O)N[C@@H](CC(C)C)C(=O)N[C@@]1(C)CCCC=CCCC[C@@](C)(C(=O)NCC(N)=O)NC(=O)[C@H](CCCCN)NC(=O)CNC(=O)[C@H](CO)NC1=O [compound 37] (H-G[S5]FSK[S5]KGKKIKNLL[S5]SGK[S5]G-NH2; staple 2-6, 16-20) | > 200 µg/mL | > 200 µg/mL
CC[C@H](C)[C@H](NC(=O)[C@H](CCCCN)NC(=O)[C@H](CCCCN)NC(=O)CNC(=O)[C@H](CCCCN)NC(=O)[C@]1(C)CCCC=CCCC[C@](C)(NC(=O)CN)C(=O)N[C@@H](Cc2ccccc2)C(=O)N[C@@H](CO)C(=O)N[C@@H](CCCCN)C(=O)N1)C(=O)N[C@@H](CCCCN)C(=O)N[C@@H](CC(N)=O)C(=O)N[C@@H](CC(C)C)C(=O)N[C@@H](CC(C)C)C(=O)N[C@@]1(C)CCCC=CCCC[C@@](C)(C(=O)N[C@@H](CCCCN)C(N)=O)NC(=O)[C@H](CC(C)C)NC(=O)CNC(=O)[C@H](CO)NC1=O [compound 38] (H-G[S5]FSK[S5]KGKKIKNLL[S5]SGL[S5]K-NH2; staple 2-6, 16-20) | 51 µg/mL (≈ 21.7 µM) | 54 µg/mL (≈ 23 µM)
CC[C@H](C)[C@H](NC(=O)[C@H](CCCCN)NC(=O)[C@H](CCCCN)NC(=O)CNC(=O)[C@H](CCCCN)NC(=O)[C@]1(C)CCCC=CCCC[C@](C)(NC(=O)CN)C(=O)N[C@@H](Cc2ccccc2)C(=O)N[C@@H](CO)C(=O)N[C@@H](CCCCN)C(=O)N1)C(=O)N[C@@H](CCCCN)C(=O)N[C@@H](CC(N)=O)C(=O)N[C@@H](CC(C)C)C(=O)N[C@@H](CC(C)C)C(=O)N[C@@]1(C)CCCC=CCCC[C@@](C)(C(=O)N[C@@H](CCCCN)C(=O)NCC(=O)NCC(=O)N[C@@H](CCC(=O)O)C(N)=O)NC(=O)[C@H](CC(C)C)NC(=O)CNC(=O)[C@H](CO)NC1=O [compound 39] (H-G[S5]FSK[S5]KGKKIKNLL[S5]SGL[S5]KGGE-NH2; staple 2-6, 16-20) | > 200 µg/mL | > 200 µg/mL
CC[C@H](C)[C@H](NC(=O)CN)C(=O)N[C@@H](Cc1ccccc1)C(=O)N[C@@H](CO)C(=O)N[C@@H](CCCCN)C(=O)N[C@@H](CC(C)C)C(=O)N[C@@]1(C)CCCC=CCCC[C@@](C)(C(=O)N[C@@H](CCCCN)C(=O)N[C@@H](CC(N)=O)C(=O)N[C@@H](CC(C)C)C(=O)N[C@@H](CC(C)C)C(=O)N[C@H](C(=O)N[C@@H](CO)C(=O)NCC(=O)N[C@@H](CC(C)C)C(=O)N[C@@H](CCCCN)C(=O)NCC(N)=O)[C@@H](C)CC)NC(=O)[C@H](CCCCN)NC(=O)[C@H](CCCCN)NC(=O)CNC1=O [compound 40] (H-GIFSKL[S5]GKK[S5]KNLLISGLKG-NH2; staple 7-11) | 11 µg/mL (≈ 4.89 µM) | 17 µg/mL (≈ 7.55 µM)
CC[C@H](C)[C@H](NC(=O)CN)C(=O)N[C@@H](Cc1ccccc1)C(=O)N[C@@H](CO)C(=O)N[C@@H](CCCCN)C(=O)N[C@@H](CC(C)C)C(=O)N[C@@]1(C)CCCC=CCCC[C@@](C)(C(=O)N[C@@H](CCCCN)C(=O)N[C@@H](CC(N)=O)C(=O)N[C@@H](CC(C)C)C(=O)N[C@@H](CCCCN)C(=O)N[C@H](C(=O)N[C@@H](CO)C(=O)NCC(=O)N[C@@H](CC(C)C)C(=O)N[C@@H](CCCCN)C(=O)NCC(N)=O)[C@@H](C)CC)NC(=O)[C@H](CCCCN)NC(=O)[C@H](CCCCN)NC(=O)CNC1=O [compound 41] (H-GIFSKL[S5]GKK[S5]KNLKISGLKG-NH2; staple 7-11) | 147 µg/mL (≈ 64.9 µM) | 172 µg/mL (≈ 75.9 µM)
CC[C@H](C)[C@@H]1NC(=O)[C@@](C)(NC(=O)[C@H](CCCCN)NC(=O)[C@H](CCCCN)NC(=O)CNC(=O)[C@H](CCCCN)NC(=O)[C@]2(C)CCCC=CCCC[C@](C)(NC(=O)CN)C(=O)N[C@@H](Cc3ccccc3)C(=O)N[C@@H](CO)C(=O)N[C@@H](CCCCN)C(=O)N2)CCCC=CCCC[C@@](C)(C(=O)N[C@@H](CCCCN)C(=O)NCC(N)=O)NC(=O)CNC(=O)[C@H](CO)NC1=O [compound 42] (H-G[S5]FSK[S5]KGKK[S5]ISG[S5]KG-NH2; staple 2-6, 11-15) | > 200 µg/mL | > 200 µg/mL
